One assay deals with HUFEC. The experiment in a line: Cell Migration Assay (CMA) Test, inhibitory rate with control (-) correction. Type of assay: cell-based, human. Particulars: 125 μl of 0.32 mM sample solution in 4.0 ml medium, 80% or more = remarkable; for inhibition at 320 µM (stock): Homo sapiens, 24 h. The procedure:
(§1) Samples were prepared using the present compounds of Compound No. I-60 through I-315. More specifically, 32 μl of a 20 mM sample solution dissolved in dimethylsulfoxide (DMSO) were removed and brought to a volume of 1 ml with phosphate-buffered saline (PBS) to prepare a sample solution having a concentration of 0.32 mM (containing 3.2% DMSO).
After disseminating the 7th subculture of […] obtained from the first generation at 4 ml/well (3.0×10^5 cells/well) in a collagen-coated 6-well plate (NUNC), the cells were cultured for 48 hours at 37° C. in the presence of 5% CO2. The cells reached nearly a completely confluent state as a result of this culturing.
A double-edged, disposable razor blade was divided into four sections, of which one of those sections was pinched between a pair of forceps. Using this piece of razor blade, the cell surface in the above confluent state was scraped off.
After washing the surface of the wells from which the cells had been scraped off with medium, 4.0 ml of fresh M199 (2+) medium were placed in the wells. 4.0 ml of M199 medium were added to the control (-) well.
125 μl of sample solution (0.32 mM, containing 3.2% dimethylsulfoxide) were added to the wells.
125 μl of PBS solution containing 3.2% dimethylsulfoxide were added to the control wells instead of sample. The cells were cultured for 24 hours at 37° C. in the presence of 5% CO2. After discarding the culture liquid, the cells were fixed for 30 minutes with methanol. Next, after […] the cells for 4 hours with Giemsa stain, the plates were washed with tap water and air dried.
Measurement of cell migration was performed by microscopically counting the number of cells that had newly migrated within the range of a 1 mm×1 mm block. […] The total number of cells counted in blocks 1 through 5 were then totaled to determine the overall total number of cells. Four fields were counted for each well.
Evaluation was performed determining the cell migration inhibitory rate (%) according to the following equation.
Inhibitory rate=100-((number of migrating cells to which sample was added-number of migrating cells of control (-))×100/(number of migrating cells of control (+)-number of migrating cells of control (-)))
If this inhibitory rate was 80% or more, cell migration was assessed as being remarkable.

The subject of assay [1] is human umbilical-vein endothelial cells (HUVEC). The experiment in a line: Tube Formation Assay (TFA) Test, HUVEC in collagen gel. As to conditions: Tables 75-83, 0.32 mM sample solution, method as for Compounds 1 through 60; for inhibition at 320 µM (stock): Homo sapiens, HUVEC, read-out: TFA Inhibition rate (%). In kind it is cell-based. The method, then: Furthermore, the sample liquids of compounds used in the CPA and CMA tests were prepared in the manner described below. Firstly, after weighing out each compound, a calculated amount of DMSO was added. After dissolving the compound in the DMSO, phosphate buffered physiological saline (PBS (-)) was added to bring the sample concentration to 1 mg/ml in PBS (-). The amount of DMSO used to dissolve the compounds was adjusted in advance to that the concentration of DMSO at that time was 5%. The resulting liquids were diluted 10-fold with 5% DMSO-PBS (-) solution to prepare sample solutions having a concentration of 0.1 mg/ml. In the TFA test, 320 μl of the prepared 1 mg/ml sample solutions were removed followed by addition of 680 μl of PBS (-) to prepare samples having a concentration of […]. Moreover, 100 μl of this solution was removed followed by addition of 900 μl of PBS (-) to dilute 10-fold and prepare samples having a concentration of 1 μg/ml. P [Cell Proliferation Assay (CPA) Test]
To begin with, 8 volumes of Type 1-A cell matrix (manufactured by Gibco Co.), 1 volume of 10×M119, and 1 volume of reconstituted buffer [200 mM HEPES, 0.05 N sodium hydroxide, 260 mM sodium bicarbonate] were slowly mixed under cooling with ice while avoiding bubbling to form a collagen gel. This collagen gel was distributed in a NUNC 24-well plate at 310 μl/well followed by allowing to stand undisturbed for 2 hours at 37° C. to solidify the gel.
Next, the 7th subculture of HUVEC (1×10^5 cells/ml) obtained from the first generation in the same manner as above were disseminated at 500 μl/well. The cells were cultured for 2 hours at 37° C. to allow the cells to make contact with the collagen. After then removing the medium by aspiration, 50 μl of sample solution were added followed by addition of 310 μl/well of freshly prepared collagen gel and culturing for 1 hour and 10 minutes at 37° C. to solidify the double-layer gel.
1 ml/well of M-199 medium containing 20% FCS, 30 ng /ml of b-FGF and 0.1 μM PMA were added to the wells followed by culturing for 20 hours at 37° C. in the presence of 5% CO2.
Measurement of the lengths of the formed tubes was performed using the public domain NIH Image with a computer.
Evaluation was performed by calculating the inhibition rate (%) of tube formation according to the following formula.
Inhibition rate (%)=100-((formed tube length in presence of sample-formed tube length in presence of control (-))×100/(formed tube length in presence of control (+)-formed tube length in presence of control (-)))
as §1
The testing method used for these compounds was the same as that used for the compounds of Compound No. 1 through 60 previously described.

One may read the inhibition as the change of the read-out against control, counted positive when it falls. `COC(=O)C1=CO[C@@H](OC(=O)Nc2cccc(C#N)c2)[C@@H]2C(C)=CC[C@H]12` [I-166]: the inhibition at 320 µM (stock) in the assay on HUFEC was 8.7%; in assay [1], 9.1%.
As to `COC(=O)C1=COC[C@@H]2C(COC(=O)NCCCl)=CC[C@H]12` [I-296], the inhibition at 320 µM (stock) with HUFEC worked out at 19.9%; in assay [1], 21.3%.
For `COC(=O)C1=CO[C@@H](OC(=O)NCCc2ccccc2F)[C@@H]2C(C)=CC[C@H]12` [I-82], in that order: 13.7% and 5.5%.
Take `CNC(=O)OCC1=CC[C@@H]2C(C(=O)OC)=COC[C@H]12` [I-295]: the inhibition at 320 µM (stock) with HUFEC came out at 5.6%; in assay [1], 7.9%.
On to `COC(=O)C1=CO[C@@H](OC(=O)NCC(OC)OC)[C@@H]2C(C)=CC[C@H]12` [I-96], for which the inhibition at 320 µM (stock) in the assay on HUFEC amounted to 5.9%; in assay [1], 19.7%.
For `COC(=O)C1=CO[C@@H](OC(=O)NN2CCN(C)CC2)[C@@H]2C(C)=CC[C@H]12` [I-73], in that order: 15.6% and 8.2%.
For `CNC(=O)O[C@@H]1OC=C(C(=O)OC)[C@H]2CC=C(CO)C12` (stereo in doubt) [I-315, (1S,4aS,7aR)-7-(hydroxy-methyl)-1-(methylcarbamoyloxy)-1,4a,5,7a-tetrahydrocyclopenta [c] pyrane-4-carboxylic acid methylester], in that order: 36.4% and 8.6%.
For `COC(=O)C1=CO[C@@H](OC(=O)NC2CC2)[C@@H]2C(C)=CC[C@H]12` [I-113], in that order: 34.4% and 7.9%.
Turning to `C[C@]12O[C@H]1C[C@@H]1C(C(=O)O)=CO[C@@H](OC(=O)NCCCl)[C@@H]12` [I-67], the “CMA Inhibition rate (%)” value with HUFEC (24 hours) is given as 29.5%. Besides, the “TFA (inhibition rate, %)” value in assay [1] is given as 19.7%.
Turning to `COC(=O)C1=CO[C@@H](OC(=O)N2CCC2)[C@@H]2C(C)=CC[C@H]12` [I-148], the inhibition at 320 µM (stock) was 3.4% in the assay with HUFEC and 5.1% in assay [1].
With `COC(=O)C1=CO[C@@H](OC(=O)NCc2ccc(Br)cc2)[C@H]2[C@@H]1CC[C@@H]2C` [I-245], the inhibition at 320 µM (stock) in the assay with HUFEC turned out to be 27.3%; in assay [1], 6.3%.
Take `COC(=O)C1=CO[C@@H](OC(=O)NC2CCN(Cc3ccccc3)CC2)[C@@H]2C(C)=CC[C@H]12` [I-89]: the inhibition at 320 µM (stock) in the assay with HUFEC was determined as 9.9%; in assay [1] it was 31.3%.
On to `CCOC(=O)CCCNC(=O)O[C@@H]1OC=C(C(=O)OC)[C@H]2CC=C(C)[C@@H]12` [I-135], for which the results for the inhibition at 320 µM (stock) (in the assay on HUFEC; in assay [1]) were 23.4% and 4.7%, respectively.
For the compound `COC(=O)C1=CO[C@@H](OC(=O)NCCN(C)C)[C@@H]2C(C)=CC[C@H]12` [I-117], the inhibition at 320 µM (stock) with HUFEC turned out to be 28.1%; in assay [1] it was 26.8%.
For `COC(=O)C1=CO[C@@H](OC(=O)NCCCCCO)[C@@H]2C(C)=CC[C@H]12` [I-104], in that order: 24.1% and 3.8%.
As to `CNC(=O)O[C@@H]1OC=C(C(=O)NCCS)[C@H]2C[C@@H]3O[C@]3(C)[C@@H]12` [I-64], the figures for the inhibition at 320 µM (stock) (in the assay with HUFEC; in assay [1]) were 9.4% and 5.2%, respectively.
For `COC(=O)C1=CO[C@@H](OC(=O)NCCc2cccs2)[C@@H]2C(C)=CC[C@H]12` [I-92], in that order: 8.1% and 15.2%.
As for `COC(=O)C1=CO[C@@H](OC(=O)Nc2cccc(C(F)(F)F)c2)[C@H]2[C@@H]1CC[C@@H]2C` [I-277], the inhibition at 320 µM (stock) in the assay on HUFEC turned out to be 12.7%; in assay [1] it was 84.4%.
As to `COC(=O)C1=COC[C@H]2[C@@H]1C[C@@H]1O[C@@]12C` [I-303], the results for the inhibition at 320 µM (stock) (with HUFEC; in assay [1]) were 6.1% and 30.6%, respectively.
For the compound `CCOC(=O)c1ccc(NC(=O)O[C@@H]2OC=C(C(=O)OC)[C@H]3CC[C@H](C)[C@@H]23)cc1` [I-268], the inhibition at 320 µM (stock) was 8.4% in the assay on HUFEC and 7.6% in assay [1].
On to `COC(=O)C1=CO[C@@H](OC(=O)NCc2ccccc2F)[C@@H]2C(C)=CC[C@H]12` [I-126], for which the figures for the inhibition at 320 µM (stock) (in the assay on HUFEC; in assay [1]) were 6.5% and 4%, respectively.
Regarding `COC(=O)C1=CO[C@@H](OC(N)=O)[C@@H]2C(C)=CC[C@H]12` [I-70], the inhibition at 320 µM (stock) amounted to 7.1% in the assay with HUFEC and 75.4% in assay [1].
As to `COC(=O)C1=CO[C@@H](OC(=O)NCCOCCO)[C@@H]2C(C)=CC[C@H]12` [I-101], the inhibition at 320 µM (stock) in the assay with HUFEC turned out to be 15.7%; in assay [1], 6.3%.
Regarding `COC(=O)C1=CO[C@@H](OC(=O)NC(=O)CCl)[C@@H]2C(C)=CC[C@H]12` [I-152], the inhibition at 320 µM (stock) amounted to 33.7% with HUFEC and 51% in assay [1].
Turning to `COC(=O)C1=CO[C@@H](OC(=O)NC(CO)CO)[C@@H]2C(C)=CC[C@H]12` [I-147], the inhibition at 320 µM (stock) with HUFEC amounted to 41%; in assay [1], 10.3%.
Consider `COC(=O)C1=CO[C@@H](OC(=O)N(C)Cc2ccccc2)[C@H]2[C@@H]1CC[C@@H]2C` [I-184], for which the inhibition at 320 µM (stock) stood at 37.1% with HUFEC and 7.4% in assay [1].
For the compound `CNC(=O)O[C@@H]1OC=C(C)[C@H]2CC[C@@H](C)[C@@H]12` [I-283], the inhibition at 320 µM (stock) in the assay on HUFEC turned out to be 9.1%; in assay [1], 11%.
With `COC(=O)C1=CO[C@@H](OC(=O)NCCc2ccc(O)cc2)[C@H]2[C@@H]1CC[C@@H]2C` [I-206], the inhibition at 320 µM (stock) was 33.6% in the assay on HUFEC and 14.2% in assay [1].
Take `COC(=O)C1=CO[C@@H](OC(=O)NCCOCCO)[C@H]2[C@@H]1CC[C@@H]2C` [I-202]: the inhibition at 320 µM (stock) came out at 6.5% in the assay with HUFEC and 26.2% in assay [1].
For `CCCN(C)C(=O)O[C@@H]1OC=C(C(=O)OC)[C@H]2CC[C@H](C)[C@@H]12` [I-193], in that order: 5.3% and 6.7%.
For `COC(=O)C1=CO[C@@H](OC(=O)NCc2ccc(Cl)cc2)[C@H]2[C@@H]1CC[C@@H]2C` [I-214], in that order: 11.7% and 5.7%.
For the compound `O=C(C1=COC[C@@H]2C(CO)=CC[C@H]12)N1CCN(CCO)CC1` [I-301], the inhibition at 320 µM (stock) in the assay with HUFEC amounted to 56%; in assay [1], 15.9%.
With `COC(=O)C1=CO[C@@H](OC(=O)N2CCOCC2)[C@H]2[C@@H]1CC[C@@H]2C` [I-188], the inhibition at 320 µM (stock) in the assay on HUFEC came out at 7.1%; in assay [1], 10.2%.

Source of the values: patent publication US6225478A, “Iridoid derivatives and neovascularization inhibitors containing the same as active ingredient” (Tsumura & Co., priority 1999, dated 2001).
